These results are taken from PubChem BioAssay AID1745844 (Carcinogenic Potency Database (CPDB), 2022).

As usually defined, the TD50 is the dose at which the toxic effect under study appears in half of the subjects.

Each structure is given as a SMILES string. Values joined by “and” are separate entries in the source; they are usually repeats but may differ in a detail not shown here. Identical values can stand only once. Active and inactive are the calls of the source. How the calls were made is not given here.

In the data set the test system is rodent lifetime carcinogenesis bioassay, tumor incidence TD50. In words: chronic cancer bioassays in animals – CPDB, compiled studies (AID 1745844).

`CC[C@H]1CN2CCc3cc(OC)c(OC)cc3[C@@H]2C[C@@H]1C[C@H]1NCCc2cc(OC)c(OC)cc21`: the TD50 (mouse, strain B6C3F1, females, i.p., site: any site (literature study), lesion: several types, types named in the paper, dosed 40 weeks, study length 78 weeks) amounted to 1.2 mg/kg/day; the TD50 (mouse, strain B6C3F1, females, i.p., site: lung, lesion: alveolar/bronchiolar adenoma + alveolar/bronchiolar carcinoma, dosed 40 weeks, study length 78 weeks) is 49.4 mg/kg/day; the TD50 (mouse, strain B6C3F1, males, i.p., site: any site (literature study), lesion: several types, types named in the paper, dosed 44 weeks, study length 78 weeks) is 0.552 mg/kg/day; the TD50 (mouse, strain B6C3F1, males, i.p., site: liver, lesion: hepatocellular adenoma + hepatocellular carcinoma + neoplastic nodule, dosed 44 weeks, study length 78 weeks) is 1.3 mg/kg/day; the TD50 (mouse, strain B6C3F1, males, i.p., site: lung, lesion: alveolar/bronchiolar adenoma + alveolar/bronchiolar carcinoma, dosed 44 weeks, study length 78 weeks) worked out at 1.19 mg/kg/day; the TD50 (rat, strain Sprague-Dawley, females, i.p., site: any site (literature study), lesion: several types, types named in the paper, dosed 52 weeks, study length 83 weeks) came to 0.235 mg/kg/day. Further, the TD50 (rat, strain Sprague-Dawley, males, i.p., site: any site (literature study), lesion: several types, types named in the paper, dosed 52 weeks, study length 83 weeks) was found to be 0.382 mg/kg/day.
For `ClC1C2(Cl)C3C4C5OC5C5C4C1(Cl)C(Cl)(C53)C2(Cl)Cl` (stereo not drawn), the TD50 by setting is: (mouse, strain B6C3F1, females, in feed, site: any site (literature study), lesion: several types, types named in the paper, dosed 80 weeks, study length 92 weeks) 0.743 mg/kg/day (inactive); (mouse, strain B6C3F1, females, in feed, site: liver, lesion: hepatocellular adenoma + hepatocellular carcinoma + neoplastic nodule, dosed 80 weeks, study length 92 weeks) 2.53 mg/kg/day; (mouse, strain B6C3F1, females, in feed, site: lung, lesion: alveolar/bronchiolar adenoma + alveolar/bronchiolar carcinoma, dosed 80 weeks, study length 92 weeks) 6.78 mg/kg/day; (mouse, strain B6C3F1, males, in feed, site: any site (literature study), lesion: several types, types named in the paper, dosed 80 weeks, study length 93 weeks) 0.494 mg/kg/day (inactive); (mouse, strain B6C3F1, males, in feed, site: liver, lesion: hepatocellular adenoma + hepatocellular carcinoma + neoplastic nodule, dosed 80 weeks, study length 93 weeks) 1.96 mg/kg/day; (mouse, strain B6C3F1, males, in feed, site: lung, lesion: alveolar/bronchiolar adenoma + alveolar/bronchiolar carcinoma, dosed 80 weeks, study length 93 weeks) 0.465 mg/kg/day. For the same compound, the TD50 was 0.327 mg/kg/day (rat, strain Osborne-Mendel, females, in feed, site: any site (literature study), lesion: several types, types named in the paper, dosed 69 weeks, study length 111 weeks); 0.612 mg/kg/day (inactive) (rat, strain Osborne-Mendel, females, in feed, site: mammary gland, lesion: adenoma + fibroadenoma, dosed 69 weeks, study length 111 weeks); 2.89 mg/kg/day (inactive) (rat, strain Osborne-Mendel, males, in feed, site: all sites, lesion: hemangioma, dosed 80 weeks, study length 109 weeks); 7.72 mg/kg/day (rat, strain Osborne-Mendel, males, in feed, site: liver, lesion: hepatocellular adenoma + hepatocellular carcinoma + neoplastic nodule, dosed 80 weeks, study length 111 weeks). For the setting “rat, strain Osborne-Mendel, males, in feed, site: any site (literature study), lesion: several types, types named in the paper, dosed 80 weeks, study length 111 weeks”, the carcinogen call is “negative (inactive)”.
Consider `Cc1cc(O)c2c(c1)C(=O)c1cc(O)cc(O)c1C2=O`, for which the TD50 is 548 mg/kg/day (inactive) (mouse, strain B6C3F1, females, in feed, site: any site (literature study), lesion: several types, types named in the paper, dosed 104 weeks, study length 104 weeks); 65800 mg/kg/day (mouse, strain B6C3F1, females, in feed, site: lung, lesion: alveolar/bronchiolar adenoma + alveolar/bronchiolar carcinoma, dosed 104 weeks, study length 104 weeks); 965 mg/kg/day and 885 mg/kg/day (mouse, strain B6C3F1, males, in feed, site: kidney, lesion: tubule adenoma + tubule carcinoma, dosed 104 weeks, study length 104 weeks); 1970 mg/kg/day (rat, strain Fischer 344, females, in feed, site: Zymbal's gland, lesion: carcinoma, dosed 104 weeks, study length 104 weeks); 797 mg/kg/day (rat, strain Fischer 344, females, in feed, site: any site (literature study), lesion: several types, types named in the paper, dosed 104 weeks, study length 104 weeks); 4300 mg/kg/day (rat, strain Fischer 344, females, in feed, site: liver, lesion: hepatocellular adenoma + hepatoblastoma + hepatocellular carcinoma, dosed 104 weeks, study length 104 weeks). In addition, for the setting “rat, strain Fischer 344, males, in feed, site: any site (literature study), lesion: several types, types named in the paper, dosed 104 weeks, study length 104 weeks”, the carcinogen call was “negative (inactive)”.
As to `CCNC(=O)N(C=O)CCN(C)C`, the TD50 reads like this: (rat, strain Fischer 344, females, by gavage, site: cervix, lesion: adenocarcinoma, dosed 37 weeks, study length 102 weeks) 5.35 mg/kg/day; (rat, strain Fischer 344, females, by gavage, site: lung, lesion: one or several types, types not named, dosed 37 weeks, study length 102 weeks) 5.35 mg/kg/day; (rat, strain Fischer 344, females, by gavage, site: mammary gland, lesion: adenocarcinoma, dosed 37 weeks, study length 102 weeks) 3.39 mg/kg/day; (rat, strain Fischer 344, females, by gavage, site: mammary gland, lesion: adenoma, dosed 37 weeks, study length 102 weeks) 11.2 mg/kg/day; (rat, strain Fischer 344, females, by gavage, site: mammary gland, lesion: fibroadenoma, dosed 37 weeks, study length 102 weeks) 0.704 mg/kg/day; (rat, strain Fischer 344, females, by gavage, site: uterus, lesion: adenoma, dosed 37 weeks, study length 102 weeks) 11.2 mg/kg/day. Moreover, the TD50 (rat, strain Fischer 344, females, by gavage, site: uterus, lesion: endometrial polyp, dosed 37 weeks, study length 102 weeks) was 1.41 mg/kg/day; the TD50 (rat, strain Fischer 344, males, by gavage, site: lung, lesion: one or several types, types not named, dosed 37 weeks, study length 102 weeks) came to 2.37 mg/kg/day; the TD50 (rat, strain Fischer 344, males, by gavage, site: skin, lesion: keratoacanthoma, dosed 37 weeks, study length 102 weeks) was 1.92 mg/kg/day.
As for `COC(C(=O)O)c1ccccc1` (stereo not drawn), the TD50 is, setting by setting: (mouse, strain B6AKF1, females, oral dosing, site: any site (literature study), lesion: several types, types named in the paper, dosed 76 weeks, study length 76 weeks) 227 mg/kg/day (inactive); (mouse, strain B6AKF1, females, oral dosing, site: lung, lesion: adenoma, dosed 76 weeks, study length 76 weeks) 236 mg/kg/day (inactive); (mouse, strain B6AKF1, males, oral dosing, site: any site (literature study), lesion: several types, types named in the paper, dosed 76 weeks, study length 76 weeks) 139 mg/kg/day (inactive); (mouse, strain B6AKF1, males, oral dosing, site: liver, lesion: hepatoma, dosed 76 weeks, study length 76 weeks) 3620 mg/kg/day (inactive); (mouse, strain B6AKF1, males, oral dosing, site: lung, lesion: adenoma, dosed 76 weeks, study length 76 weeks) 157 mg/kg/day (inactive); (mouse, strain B6C3F1, females, oral dosing, site: any site (literature study), lesion: several types, types named in the paper, dosed 76 weeks, study length 76 weeks) 157 mg/kg/day (inactive). The TD50 is 244 mg/kg/day (inactive) (mouse, strain B6C3F1, females, oral dosing, site: lung, lesion: adenoma, dosed 76 weeks, study length 76 weeks); 82.1 mg/kg/day (inactive) (mouse, strain B6C3F1, males, oral dosing, site: all sites, lesion: reticulum-cell sarcoma, dosed 76 weeks, study length 76 weeks); 54.2 mg/kg/day (inactive) (mouse, strain B6C3F1, males, oral dosing, site: any site (literature study), lesion: several types, types named in the paper, dosed 76 weeks, study length 76 weeks); 227 mg/kg/day (inactive) (mouse, strain B6C3F1, males, oral dosing, site: liver, lesion: hepatoma, dosed 76 weeks, study length 76 weeks). In addition, the carcinogen call is “negative (inactive)” (mouse, strain B6AKF1, females, oral dosing, site: liver, lesion: hepatoma, dosed 76 weeks, study length 76 weeks); “negative (inactive)” (mouse, strain B6C3F1, females, oral dosing, site: liver, lesion: hepatoma, dosed 76 weeks, study length 76 weeks); “negative (inactive)” (mouse, strain B6C3F1, males, oral dosing, site: lung, lesion: several types, types named in the paper, dosed 76 weeks, study length 76 weeks).
For `COC(=O)[C@H]1[C@H]2C[C@@H]3c4[nH]c5ccccc5c4CCN3C[C@H]2C[C@@H](OC(=O)c2cc(OC)c(OC)c(OC)c2)[C@@H]1OC`, the TD50 (rat, strain Wistar, both sexes, in feed, site: several sites, sites named in the paper, lesion: several types, types named in the paper, dosed 78 weeks, study length 78 weeks) is 1.28 mg/kg/day (inactive).
